The results in this text go back to paper PMC8973346, “Dissecting The role of Plasmodium metacaspase-2 in malaria gametogenesis and sporogony” (Emerging Microbes & Infections, 2022).

By Ki is commonly meant a dissociation constant, usually derived from enzyme kinetics or from competition with a known ligand.

This assay has as its target T1, PfMCA-2 (metacaspase-2) (Plasmodium falciparum, UniProt Q8IL84).
T1 construct: gene MCA2; catalytic domain
Nature of the assay: fluorogenic Z-GRR-AMC cleavage assay with recombinant enzyme, Michaelis-Menten nonlinear regression. The class given is biochemical.

T1 sequence (Q8IL84 1650-2020): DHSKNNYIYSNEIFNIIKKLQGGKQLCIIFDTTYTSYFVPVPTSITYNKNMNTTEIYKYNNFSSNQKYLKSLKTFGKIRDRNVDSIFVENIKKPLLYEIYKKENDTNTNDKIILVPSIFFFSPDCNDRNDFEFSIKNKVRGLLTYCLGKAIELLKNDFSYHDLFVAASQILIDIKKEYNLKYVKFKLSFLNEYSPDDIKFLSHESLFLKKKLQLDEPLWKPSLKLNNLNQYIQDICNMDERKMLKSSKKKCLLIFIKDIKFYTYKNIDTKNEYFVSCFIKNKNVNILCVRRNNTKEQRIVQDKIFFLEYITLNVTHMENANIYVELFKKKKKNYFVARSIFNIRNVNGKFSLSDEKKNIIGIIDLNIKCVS

`CCCc1ccc(CNc2ccc3oc(CC4CCCCC4)nc3c2)cc1` [C-533]: the inhibition constant (Ki) was 1.62 ± 0.22 nM.

On to `CC(C)c1ccc(CNc2ccc3oc(CC4CCCCC4)nc3c2)cc1` [C-532], for which the Ki was found to be 2.1 ± 0.12 nM.
